Measurements published in ChEMBL document CHEMBL3232938, “Design, synthesis, and biological evaluation of dihydroartemisinin-fluoroquinolone conjugates as a novel type of potential antitubercular agents” (2014).
Values after ≈ are worked out from the molar mass of the structure shown.

Columns and labels:
Assay type in all cases: functional
Pseudomonas aeruginosa [1] = experiment: Antibacterial activity against Pseudomonas aeruginosa assessed as zone of inhibition at 2 ug/ml; conditions: read-out: DIZ
[2] = system: Mycobacterium tuberculosis; experiment: Antibacterial activity against Mycobacterium tuberculosis H37Rv ATCC 27294 assessed as growth inhibition after 7 days by microtiter plate assay; conditions: H37Rv ATCC 27294, 168 h
Staphylococcus aureus [3] = experiment: Antibacterial activity against Staphylococcus aureus assessed as growth inhibition after 7 days by microtiter plate assay; conditions: 168 h
Staphylococcus aureus [4] = experiment: Antibacterial activity against Staphylococcus aureus assessed as zone of inhibition at 2 ug/ml; conditions: read-out: DIZ
Escherichia coli [5] = experiment: Antibacterial activity against duck Escherichia coli assessed as zone of inhibition at 2 ug/ml; conditions: read-out: DIZ
Salmonella [6] = experiment: Antibacterial activity against Salmonella assessed as zone of inhibition at 2 ug/ml; conditions: read-out: DIZ
[7] = system: Mycobacterium tuberculosis; experiment: Antibacterial activity against drug-sensitive 1 ug/ml Mycobacterium tuberculosis clinical isolate 760 assessed as growth inhibition after 7 days by microtiter plate assay; conditions: isolate 760, 168 h
[8] = system: Mycobacterium tuberculosis; experiment: Antibacterial activity against drug-sensitive 1 ug/ml Mycobacterium tuberculosis clinical isolate 753 assessed as growth inhibition after 7 days by microtiter plate assay; conditions: isolate 753, 168 h
[9] = system: Mycobacterium tuberculosis; experiment: Antibacterial activity against drug-sensitive 1 ug/ml Mycobacterium tuberculosis clinical isolate 741 assessed as growth inhibition after 7 days by microtiter plate assay; conditions: isolate 741, 168 h
Escherichia coli [10] = experiment: Antibacterial activity against Escherichia coli assessed as zone of inhibition at 2 ug/ml; conditions: read-out: DIZ
Escherichia coli [11] = experiment: Antibacterial activity against Escherichia coli assessed as growth inhibition after 7 days by microtiter plate assay; conditions: 168 h
[12] = system: Mycobacterium tuberculosis; experiment: Antibacterial activity against drug-sensitive 1 ug/ml Mycobacterium tuberculosis clinical isolate 821 assessed as growth inhibition after 7 days by microtiter plate assay; conditions: isolate 821, 168 h
Salmonella [13] = experiment: Antibacterial activity against Salmonella assessed as growth inhibition after 7 days by microtiter plate assay; conditions: 168 h
Pseudomonas aeruginosa [14] = experiment: Antibacterial activity against Pseudomonas aeruginosa assessed as growth inhibition after 7 days by microtiter plate assay; conditions: 168 h
Escherichia coli [15] = experiment: Antibacterial activity against duck Escherichia coli assessed as growth inhibition after 7 days by microtiter plate assay; conditions: 168 h
[16] = system: Mycobacterium tuberculosis; experiment: Antibacterial activity against drug-sensitive 1 ug/ml Mycobacterium tuberculosis clinical isolate 758 assessed as growth inhibition after 7 days by microtiter plate assay; conditions: isolate 758, 168 h
[17] = system: Mycobacterium tuberculosis; experiment: Antibacterial activity against 0.5 ug/ml Mycobacterium tuberculosis H37Rv ATCC 27294 assessed as growth inhibition after 7 days by microtiter plate assay; conditions: H37Rv ATCC 27294, 168 h
[18] = system: Mycobacterium tuberculosis; experiment: Antibacterial activity against 1 ug/ml Mycobacterium tuberculosis H37Rv ATCC 27294 assessed as growth inhibition after 7 days by microtiter plate assay; conditions: H37Rv ATCC 27294, 168 h

| SMILES | zone of inhibition at 2 µg/mL (Pseudomonas aeruginosa [1]) [mm] | MIC [2] [µM] | MIC (Staphylococcus aureus [3]) [µg/mL] | zone of inhibition at 2 µg/mL (Staphylococcus aureus [4]) [mm] | zone of inhibition at 2 µg/mL (Escherichia coli [5]) [mm] | zone of inhibition at 2 µg/mL (Salmonella [6]) [mm] | MIC [7] [µg/mL] | MIC [8] [µg/mL] | MIC [9] [µg/mL] | zone of inhibition at 2 µg/mL (Escherichia coli [10]) [mm] | MIC (Escherichia coli [11]) [µg/mL] | MIC [12] [µg/mL] | MIC (Salmonella [13]) [µg/mL] | MIC (Pseudomonas aeruginosa [14]) [µg/mL] | MIC (Escherichia coli [15]) [µg/mL] | MIC [16] [µg/mL] | MIC [17] [µM] | MIC [18] [µM] |
| --- | --- | --- | --- | --- | --- | --- | --- | --- | --- | --- | --- | --- | --- | --- | --- | --- | --- | --- |
| O=C(O)c1cn(C2CC2)c2cc(N3CCNCC3)c(F)cc2c1=O [CIPROFLOXACIN] | 18 | 0.75 (≈ 0.249 µg/mL) | 8 (≈ 24.1 µM) | 9 | 42 | 24 |  |  |  |  |  |  |  |  |  |  |  |  |
| O=C(O)c1cn(-c2ccc(F)cc2)c2cc(N3CCNCC3)c(F)cc2c1=O [SARAFLOXACIN] | 20 | 5.19 (≈ 2 µg/mL) | 16 (≈ 41.5 µM) | < 5 | 38 | 25 | 8 (≈ 20.8 µM) | 8 (≈ 20.8 µM) | 16 (≈ 41.5 µM) | 24 | 0.5 (≈ 1.3 µM) | 8 (≈ 20.8 µM) | 16 (≈ 41.5 µM) | 2 (≈ 5.19 µM) | 4 (≈ 10.4 µM) | 8 (≈ 20.8 µM) |  |  |
| NC1CCN(c2c(F)cc3c(=O)c(C(=O)O)cn(C4CC4)c3c2Cl)C1 (centres undefined) [CLINAFLOXACIN] | 32 | 0.43 (≈ 0.157 µg/mL) | 2 (≈ 5.47 µM) | 21 | 43 | 28 | 0.25 (≈ 0.683 µM) | 0.5 (≈ 1.37 µM) | 1 (≈ 2.73 µM) | 25 | 0.25 (≈ 0.683 µM) | 1 (≈ 2.73 µM) | 4 (≈ 10.9 µM) | 0.5 (≈ 1.37 µM) | 4 (≈ 10.9 µM) | 0.25 (≈ 0.683 µM) |  |  |
| C[C@H]1[C@@H](O)O[C@@H]2O[C@@]3(C)CC[C@H]4[C@H](C)CC[C@@H]1[C@@]24OO3 [ARTENIMOL] | < 5 | > 56 | 16 (≈ 56.3 µM) | < 5 | < 5 | < 5 | > 16 | > 16 | > 16 | < 5 | 16 (≈ 56.3 µM) | > 16 | 16 (≈ 56.3 µM) | 16 (≈ 56.3 µM) | 4 (≈ 14.1 µM) | > 16 |  |  |
| CCn1cc(C(=O)O)c(=O)c2cc(F)c(N3CCNCC3)cc21 [NORFLOXACIN] | 16 | 6.26 (≈ 2 µg/mL) | 16 (≈ 50.1 µM) | < 5 | 33 | 17 | 4 (≈ 12.5 µM) | 4 (≈ 12.5 µM) | 8 (≈ 25.1 µM) | 18 | 2 (≈ 6.26 µM) | 4 (≈ 12.5 µM) | 16 (≈ 50.1 µM) | 2 (≈ 6.26 µM) | 4 (≈ 12.5 µM) | 4 (≈ 12.5 µM) |  |  |
| C[C@H]1[C@@H](OCCCNC2CCN(c3c(F)cc4c(=O)c(C(=O)O)cn(C5CC5)c4c3Cl)C2)O[C@@H]2O[C@@]3(C)CC[C@H]4[C@H](C)CC[C@@H]1[C@@]24OO3 (some centres undefined) | < 5 |  | 16 (≈ 23.2 µM) | < 5 | < 5 | 10 | 0.125 (≈ 0.181 µM) | 0.125 (≈ 0.181 µM) | 0.125 (≈ 0.181 µM) | 7 | 8 (≈ 11.6 µM) | 1 (≈ 1.45 µM) | 16 (≈ 23.2 µM) | 8 (≈ 11.6 µM) | 8 (≈ 11.6 µM) | 0.125 (≈ 0.181 µM) | 0.181 (≈ 0.125 µg/mL) | 0.181 (≈ 0.125 µg/mL) |
| C[C@H]1[C@@H](OC(=O)CCC(=O)N2CCN(c3cc4c(cc3F)c(=O)c(C(=O)O)cn4C3CC3)CC2)O[C@@H]2O[C@@]3(C)CC[C@H]4[C@H](C)CC[C@@H]1[C@@]24OO3 | < 5 |  | 16 (≈ 22.9 µM) | < 5 | < 5 | < 5 |  |  |  | 9 | 16 (≈ 22.9 µM) |  | 16 (≈ 22.9 µM) | 16 (≈ 22.9 µM) | 16 (≈ 22.9 µM) |  | 2.07 (≈ 1.44 µg/mL) | 2.07 (≈ 1.44 µg/mL) |
| C[C@H]1[C@@H](OCCCN2CCN(c3cc4c(cc3F)c(=O)c(C(=O)O)cn4-c3ccc(F)cc3)CC2)O[C@@H]2O[C@@]3(C)CC[C@H]4[C@H](C)CC[C@@H]1[C@@]24OO3 | < 5 |  | 16 (≈ 22.5 µM) | < 5 | < 5 | 10 |  |  |  | < 5 | 16 (≈ 22.5 µM) |  | 16 (≈ 22.5 µM) | 16 (≈ 22.5 µM) | 4 (≈ 5.64 µM) |  | > 5.64 | > 5.64 |
| CCn1cc(C(=O)O)c(=O)c2cc(F)c(N3CCN(CCCO[C@H]4O[C@@H]5O[C@@]6(C)CC[C@H]7[C@H](C)CC[C@@H]([C@H]4C)[C@@]57OO6)CC3)cc21 | < 5 |  | 8 (≈ 12.4 µM) | < 5 | < 5 | < 5 |  |  |  | < 5 | 16 (≈ 24.9 µM) |  | 16 (≈ 24.9 µM) | 16 (≈ 24.9 µM) | 8 (≈ 12.4 µM) |  | 6.21 (≈ 4 µg/mL) | 6.21 (≈ 4 µg/mL) |
| C[C@H]1[C@@H](OCCNC2CCN(c3c(F)cc4c(=O)c(C(=O)O)cn(C5CC5)c4c3Cl)C2)O[C@@H]2O[C@@]3(C)CC[C@H]4[C@H](C)CC[C@@H]1[C@@]24OO3 (some centres undefined) | < 5 |  | 16 (≈ 23.7 µM) | < 5 | 7 | 12 | 0.125 (≈ 0.185 µM) | 0.125 (≈ 0.185 µM) | 0.125 (≈ 0.185 µM) | 8 | 8 (≈ 11.8 µM) | 0.25 (≈ 0.37 µM) | 16 (≈ 23.7 µM) | 16 (≈ 23.7 µM) | 16 (≈ 23.7 µM) | 0.125 (≈ 0.185 µM) | 0.092 (≈ 0.0622 µg/mL) | 0.185 (≈ 0.125 µg/mL) |
| C[C@H]1[C@@H](OCCN2CCN(c3cc4c(cc3F)c(=O)c(C(=O)O)cn4-c3ccc(F)cc3)CC2)O[C@@H]2O[C@@]3(C)CC[C@H]4[C@H](C)CC[C@@H]1[C@@]24OO3 | < 5 |  | 16 (≈ 23 µM) | < 5 | < 5 | < 5 |  |  |  | < 5 | 16 (≈ 23 µM) |  | 16 (≈ 23 µM) | 16 (≈ 23 µM) | 8 (≈ 11.5 µM) |  | > 2.87 | > 2.87 |
| CCn1cc(C(=O)O)c(=O)c2cc(F)c(N3CCN(C(=O)CCC(=O)O[C@H]4O[C@@H]5O[C@@]6(C)CC[C@H]7[C@H](C)CC[C@@H]([C@H]4C)[C@@]57OO6)CC3)cc21 | < 5 |  | 16 (≈ 23.3 µM) | < 5 | < 5 | < 5 |  |  |  | 6 | 16 (≈ 23.3 µM) |  | 16 (≈ 23.3 µM) | 16 (≈ 23.3 µM) | 16 (≈ 23.3 µM) |  | > 5.83 | > 5.83 |
